The target of one experiment is T1, human NK2 receptor (Homo sapiens, UniProt P21452).
T1 construct: expressed in transfected cells; host or cells: CHO cells (membranes)
T1 sequence (P21452 1-398): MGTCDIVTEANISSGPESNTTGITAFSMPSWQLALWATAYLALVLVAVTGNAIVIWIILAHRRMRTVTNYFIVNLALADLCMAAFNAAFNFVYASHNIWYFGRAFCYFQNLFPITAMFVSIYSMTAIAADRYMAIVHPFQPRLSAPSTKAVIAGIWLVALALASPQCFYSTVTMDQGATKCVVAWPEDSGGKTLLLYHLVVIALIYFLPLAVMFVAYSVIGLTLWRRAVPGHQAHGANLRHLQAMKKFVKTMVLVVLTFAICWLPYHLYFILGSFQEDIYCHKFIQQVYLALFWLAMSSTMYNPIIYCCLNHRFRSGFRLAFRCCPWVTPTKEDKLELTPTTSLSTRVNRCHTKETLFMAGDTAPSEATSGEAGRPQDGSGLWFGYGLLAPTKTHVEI
In words: binding test, [125I]NKA competition on membranes of CHO cells transfected with the NK2 receptor of human ileum. The following applies: CHO cell membranes, [125I]NKA 100 pM, 30 min, 20° C. The method, then: (§1) The compounds described in the present invention act as antagonists to the NK2 receptor of tachykinins. The biological activity was evaluated in three in vitro functional tests, using rabbit pulmonary artery (RPA), hamster trachea (HT) and rat urinary bladder (RUB), according to the methods described by C. A. Maggi et al., Br. J. Pharmacol., 1990, 100, 588; P. D'Orleans-Juste et al., Eur. J. Pharmacol., 1986, 125, 37; and C. A. Maggi et al., J. Pharmacol. Exp. Ther., 1988, 246, 308. The affinity of the compounds for the human NK2 receptor was evaluated in a binding test using membranes of Chinese hamster ovary (CHO) cells transfected with the NK2 receptor of human ileum and the radioligand [^125I]NKA (Amersham, […] 2000 Ci/mmol) at the concentration of 100 pM in competition studies. The substances under examination were tested in a concentration range between 0.01 nM and […]. At the end of incubation (30 min, 20° C.) the test specimens were filtered, and radioactivity was determined using a gamma-counter.
(§2) The data emerging from the functional studies were expressed as pA2 (O. Arunlakshana and H. O. Shild, Br. J. Pharmacol. Chemother., 1959, 14, 45), and the data emerging from the binding studies were expressed as pKi (log Ki calculated with the LIGAND program; P. J. Munson et al., Anal. Biochem., 1980, 107, 220).

Experiment [1] addresses T2, NK2 receptor of tachykinins (Mesocricetus auratus, UniProt P51144).
T2 construct: from tissue; host or cells: hamster trachea
T2 sequence (P51144 1-384): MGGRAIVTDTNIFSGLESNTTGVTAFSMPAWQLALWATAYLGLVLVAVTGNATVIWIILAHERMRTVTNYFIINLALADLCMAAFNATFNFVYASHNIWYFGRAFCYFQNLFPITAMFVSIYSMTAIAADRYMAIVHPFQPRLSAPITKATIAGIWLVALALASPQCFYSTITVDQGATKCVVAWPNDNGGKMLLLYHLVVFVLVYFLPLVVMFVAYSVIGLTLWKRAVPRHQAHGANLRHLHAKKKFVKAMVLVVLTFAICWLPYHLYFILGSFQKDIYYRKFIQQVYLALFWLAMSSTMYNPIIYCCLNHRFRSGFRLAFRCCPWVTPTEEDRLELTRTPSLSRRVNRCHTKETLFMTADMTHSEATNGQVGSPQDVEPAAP
In words: in vitro functional test, hamster trachea (HT). Type of experiment: cell-based. The conditions noted are these: read-out: pA2 HT (converted). The method, then:
as §1, §2

For experiment [2], the target named is T3, NK2 receptor of tachykinins (Oryctolagus cuniculus, UniProt P79218).
T3 construct: from tissue; host or cells: rabbit pulmonary artery
T3 sequence (P79218 1-384): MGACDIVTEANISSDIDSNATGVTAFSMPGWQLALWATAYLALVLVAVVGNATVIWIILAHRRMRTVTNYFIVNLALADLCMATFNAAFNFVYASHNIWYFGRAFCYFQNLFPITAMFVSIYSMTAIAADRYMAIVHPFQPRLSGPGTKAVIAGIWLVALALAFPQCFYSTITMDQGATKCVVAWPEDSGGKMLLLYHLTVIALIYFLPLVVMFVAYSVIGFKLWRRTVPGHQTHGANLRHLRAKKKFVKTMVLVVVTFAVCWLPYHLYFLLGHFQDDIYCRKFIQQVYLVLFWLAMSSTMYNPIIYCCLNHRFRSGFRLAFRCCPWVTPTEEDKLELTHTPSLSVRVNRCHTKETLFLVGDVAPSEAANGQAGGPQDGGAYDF
In words: in vitro functional test, rabbit pulmonary artery (RPA). Type of experiment: cell-based. The following applies: read-out: pA2 RPA (converted). As for the experimental part:
as §1, §2

Experiment [3] has as its target T4, NK2 receptor of tachykinins (Rattus norvegicus, UniProt P16610).
T4 construct: from tissue; host or cells: rat urinary bladder
T4 sequence (P16610 1-390): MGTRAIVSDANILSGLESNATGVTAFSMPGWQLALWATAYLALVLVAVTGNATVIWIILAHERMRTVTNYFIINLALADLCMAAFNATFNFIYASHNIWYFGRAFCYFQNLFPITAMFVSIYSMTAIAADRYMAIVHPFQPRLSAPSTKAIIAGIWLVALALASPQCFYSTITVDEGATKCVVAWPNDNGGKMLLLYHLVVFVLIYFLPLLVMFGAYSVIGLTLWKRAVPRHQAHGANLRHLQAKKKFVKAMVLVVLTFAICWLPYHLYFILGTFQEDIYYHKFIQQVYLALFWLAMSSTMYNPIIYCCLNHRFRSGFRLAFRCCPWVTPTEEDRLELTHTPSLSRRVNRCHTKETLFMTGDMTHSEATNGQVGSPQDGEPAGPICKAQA
In words: in vitro functional test, rat urinary bladder (RUB). Format: cell-based. The following applies: for Kb: read-out: pA2 RUB (converted). As for the experimental part: as §1, §2

The results in this text go back to patent US7015196B1, “Basic monocyclic compounds having Nk2 antagonist action, processes for their preparation, and formulations containing them” (Menarini Ricerche S.p.A., priority 1999, dated 2006).

Molecules are shown by their SMILES.

Turning to `O=C1CC(C(=O)N2CCC(N3CCCCC3)CC2)C(=O)NCC(Cc2ccccc2)NC(=O)C(Cc2ccccc2)NC(=O)C(Cc2c[nH]c3ccccc23)N1` (single isomer, unassigned) [Example 8, cyclo{-Suc[1-(S or R)-(1,4′)-bipiperidinyl-1′-carbonyl]-Trp-Phe[(R)—NH—CH(CH2—C6H5)—CH2NH]-}], the inhibition constant (Ki) at human NK2 receptor was 0.316 nM.
Turning to `O=C1C[C@@H](NC(=O)CN2CCC(N3CCCCC3)CC2)C(=O)NC[C@@H](Cc2ccccc2)NC(=O)[C@H](Cc2ccccc2)NC(=O)[C@H](Cc2c[nH]c3ccccc23)N1` [Example 1, cyclo{-Suc[1-(R)-2(1,4′)-bipiperidinyl-1′-yl-acetyl amino]-Trp-Phe-[(R)—NH—CH(CH2—C6H5)—CH2NH]-}], the negative logarithm of the Ki (pKi) at human NK2 receptor is reported as 9.4. Besides, the Kb in experiment [1] is 1.58 nM; in experiment [2], 2 nM; in experiment [3], 0.631 nM.
For the compound `O=C1C[C@@H](NC(=O)CN2CCC(N3CCOCC3)CC2)C(=O)NC(Cc2c[nH]c3ccc(F)cc23)C(=O)NC(Cc2ccccc2)C(=O)N[C@H](Cc2ccccc2)CN1` (stereo partly drawn) [Example 4, cyclo{-Suc[1-(R)-2(4-morpholinyl-4-piperidinyl-1-yl-acetyl)amino]-Trp-(5-F)-Phe-[(R)-N H—CH(CH2—C6H5)—CH2NH]-}], the pKi at human NK2 receptor turned out to be 10.1. The “pA2 RUB” value in experiment [3] came out at 9.7.
For `O=C1C[C@@H](NC(=O)CN2CCC(N3CCCCC3)CC2)C(=O)NC(Cc2c[nH]c3ccccc23)C(=O)NC(Cc2ccc(F)cc2)C(=O)N[C@H](Cc2ccccc2)CN1` (stereo partly drawn) [Example 3, cyclo{-Suc[1-(R)-2(1,4′)-bipiperidinyl-1′-yl-acetyl amino]-Trp-Phe-(4-F)-[(R)—NH—CH(CH2—C6H5)—CH2NH]-}] the same measures were 9.6 and 9.3.
The compound `O=C1CC(C(=O)N2CCC(N3CCCCC3)CC2)C(=O)NCC(Cc2ccccc2)NC(=O)C(Cc2ccccc2)NC(=O)C(Cc2c[nH]c3ccccc23)N1` (single isomer, unassigned) [Example 7, cyclo{-Suc[1-(R or S)-(1,4′)-bipiperidinyl-1′-carbonyl]-Trp-Phe[(R)—NH—CH(CH2—C6H5)—CH2NH]-}] gave an inhibition constant (Ki) at human NK2 receptor of 0.0501 nM. The Kb in experiment [3] is 0.794 nM.
The corresponding values for `O=C1C[C@@H](NC(=O)CN2CCC(N3CCOCC3)CC2)C(=O)NC[C@@H](Cc2ccccc2)NC(=O)[C@H](Cc2ccccc2)NC(=O)[C@H](Cc2c[nH]c3ccccc23)N1` [Example 2, cyclo{-Suc[1-(R)-2(4-morpholin-4-yl-piperidin-1-yl)-acetyl amino]-Trp-Phe-[(R)—NH—CH(CH2—C6H5)—CH2NH]-}] are 0.2 nM and 0.158 nM.
